No end group written: not given here.
Assays:
[1] = system: Pseudomonas aeruginosa M13513; test: MIC by broth microdilution (CLSI); type: cell-based; conditions: CAMHB, two consecutive values shown where replicates varied by one dilution
Excerpt: Pseudomonas aeruginosa M13513 is a clinical isolate carrying the carbapenemase KPC-2 (blaKPC-2 gene). This strain was generously supplied by the Servicio Antimicrobianos, Instituto Nacional de Enfermedades Infecciosas (INEI)-ANLIS “Dr. Carlos G. Malbrán” in Buenos Aires, Argentina.
For antimicrobial testing, bacterial cultures were maintained in Cation-Adjusted Mueller–Hinton Broth (CAMHB), following Clinical and Laboratory Standards Institute (CLSI) guidelines.
The minimal inhibitory concentration was assessed using a standard microdilution assay, following CLSI guidelines. Mueller–Hinton Broth (Laboratorios Britania S.A., Buenos Aires, Argentina) supplemented with Ca^2+ (20–25 mg/L) and Mg^2+ (10–12.5 mg/L) was used for the assay. The bacterial strains tested included Pseudomonas aeruginosa PAO1, Pseudomonas aeruginosa M13513, and Staphylococcus aureus ATCC® 25923.

[2] = system: P. aeruginosa M13513
Protocol: To analyze the stability of the molecule, the peptide was exposed to different temperatures for varying durations. The conditions tested involved incubation at 37 °C for 24 h, at 60 °C for 2 h, and at 100 °C for 15 min. Each condition was set up in a microtube with the peptide dissolved in sterile deionized water. As a control, the peptide was dissolved immediately before testing without temperature incubation. Afterward, the broth microdilution assay was conducted to assess its antimicrobial effectiveness. Additionally, the stability of the peptide in serum was examined. Three microtubes were prepared, each containing sterile deionized water with FCBS (fetal calf bovine serum) 25% (v/v) and the antimicrobial peptide. Two of these samples were incubated at 37 °C for 24 h or 2 h, while the third sample was prepared just before testing without any temperature incubation. As controls, serum alone and peptide without serum were used. The antimicrobial activity was subsequently evaluated through the broth microdilution assay. In order to assess the stability of the AMP, P6.2 was incubated at different temperature conditions or with FBS (fetal bovine serum) for different time periods. The temperature exposures were overnight (ON) at 37 °C, 120 min at 60 °C, and 15 min at 100 °C. […]

[3] = system: P. aeruginosa M13513; test: Inhibition of biofilm formation (crystal violet); type: cell-based, Pseudomonas aeruginosa; conditions: sub-MIC concentrations (1/8 to 1/2 of the MIC), 24 h
Protocol: The assessment of biofilm inhibition was carried out using 96-well flat-bottom polystyrene plates. Antimicrobial agents were diluted in Mueller–Hinton broth through a two-fold serial dilution and subsequently inoculated with a fresh bacterial culture to obtain a final concentration of 5 × 10^5 CFU/mL, with a total well volume of 100 µL. The plates were then incubated at 37 °C for 24 h. Bacteria cultured without the peptide served as the control. To evaluate biofilm formation following peptide exposure, the supernatant was carefully removed, and the wells were washed twice with 100 µL of saline solution to eliminate any non-adherent cells. The remaining biofilm was fixed by adding 100 µL of methanol for 15 min, followed by staining with 100 µL of 1% (v/v) crystal violet ( Sigma-Aldrich, Massachusetts, USA) for 5 min. After staining, the excess dye was discarded, and the wells were rinsed twice with 200 µL of distilled water before allowing the plate to dry at 37 °C for 30 min. Finally, 100 µL of 33% acetic acid was added to each well, and the samples were homogenized by gentle agitation. The absorbance was then measured at 595 nm using a microplate reader (RT2100, Rayto Life and Analytical Sciences Co., Ltd., Shenzhen, China).

[4] = system: P. aeruginosa strain PA01; conditions: mice challenged with P. aeruginosa PA01; ref previous work; cited from earlier work
Excerpt: The antimicrobial peptide P6.2 was previously de novo designed as an alpha helix cationic amphipathic molecule. […] In this work, the peptide P6.2 antimicrobial activity and its possible synergy with ...

[5] = system: P. aeruginosa strain PA01; conditions: sub-MIC concentrations, reference strain PAO1; cited from earlier work
Excerpt: Biofilms are complex bacterial communities characterized by extensive intercellular interactions. Biofilm-associated bacteria, including P. aeruginosa, are commonly implicated in chronic infections that can persist for years. As such, managing biofilm-associated infections has become a critical focus in antimicrobial therapy, given their resistance to conventional antibiotic concentrations.

[6] = system: P. aeruginosa M13513; test: Peptide stability at different temperatures, read out by broth microdilution MIC; type: physicochemical, Pseudomonas aeruginosa; set-up: unit not given beside the values; conditions: peptide in sterile deionized water, then broth microdilution vs P. aeruginosa M13513
Protocol: To analyze the stability of the molecule, the peptide was exposed to different temperatures for varying durations. The conditions tested involved incubation at 37 °C for 24 h, at 60 °C for 2 h, and at 100 °C for 15 min. Each condition was set up in a microtube with the peptide dissolved in sterile deionized water. As a control, the peptide was dissolved immediately before testing without temperature incubation. Afterward, the broth microdilution assay was conducted to assess its antimicrobial effectiveness. Additionally, the stability of the peptide in serum was examined. Three microtubes were prepared, each containing sterile deionized water with FCBS (fetal calf bovine serum) 25% (v/v) and the antimicrobial peptide. Two of these samples were incubated at 37 °C for 24 h or 2 h, while the third sample was prepared just before testing without any temperature incubation. As controls, serum alone and peptide without serum were used. The antimicrobial activity was subsequently evaluated through the broth microdilution assay. In order to assess the stability of the AMP, P6.2 was incubated at different temperature conditions or with FBS (fetal bovine serum) for different time periods. The temperature exposures were overnight (ON) at 37 °C, 120 min at 60 °C, and 15 min at 100 °C. P6.2 was incubated with 25% FBS at 37 °C for 2 and 24 h before the experiment or directly at the moment of the experiment. Then, a microdilution assay was performed to test the antimicrobial activity.

[7] = system: P. aeruginosa M13513; test: Eradication of pre-formed biofilm and cell viability (crystal violet, MTT, CLSM); type: cell-based, Pseudomonas aeruginosa; conditions: 1xMIC to 8xMIC
Protocol: Biofilms of P. aeruginosa M13513 were grown in 96-well flat-bottom polystyrene plates using CAMHB for 24 h. Once the biofilms were established, the supernatant was removed, and 100 µL of CAMHB containing two-fold serial dilutions of antimicrobials were added to each well. The plates were then incubated for an additional 24 h at 37 °C.
For each experiment, two sets of plates were prepared: one for biofilm quantification using the crystal violet (CV) staining method described earlier, and another to assess bacterial cell viability within the biofilm using the MTT assay (3-(4,5-dimethylthiazol-2-yl)-2,5-diphenyltetrazolium bromide). To perform the MTT assay, the medium was carefully removed, and biofilms were washed three times with 200 µL of saline solution. Subsequently, 100 µL of a 0.05% (w/v) MTT solution was added to each well, and the plates were incubated in the dark at 37 °C for 3 h.
Following incubation, the supernatant was discarded, and the resulting formazan crystals were dissolved in 100 µL of DMSO. The samples were then homogenized by orbital shaking for 10 min. Finally, absorbance was measured at 570 nm using a microplate reader. […]
The proportion of live and dead bacteria was determined by analyzing three representative images from each biofilm sample using the ImageJ software 1.52v with the FIJI plugin.

GLLRKWGKKWKEFLRRVWK-NH2 [Peptide P6.2]
MIC [1]: 32/64 | reduction of antimicrobial activity after serum incubation [2]: two-fold dilution | biofilm inhibitory activity [3]: did not show anti-biofilm activity | effect in murine acute lung infection model [4]: anti-inflammatory effects | anti-biofilm activity [5]: did not display anti-biofilm activity | MIC after temperature exposure ([6]; 37 °C ON (24 h)): 32/64 | MIC after temperature exposure ([6]; 60 °C 120 min): 32/64 | MIC after temperature exposure ([6]; 100 °C 15 min): 32/64 | bacterial viability inside the pre-formed biofilm ([7]; MTT assay, confirmed by SYTO9/PI confocal microscopy): significantly decreased the bacterial viability inside the biofilm | pre-formed biofilm mass ([7]; crystal violet, 24 h treatment): diminished the biofilm mass
